Legend:
[1] = 101.33 kPa, Liquid, Vibrating tube method
[2] = mn = molality of the nth substance listed, in mol/kg; conditions: 100 kPa, Liquid, Vibrating tube method

CCCCn1cc[n+](CCCC)c1.[Br-] [1,3-dibutylimidazolium bromide]
[1]
Conditions	mass density [kg/m3]
293.15 K	1197.07
298.15 K	1193.75
303.15 K	1190.32
308.15 K	1186.85
313.15 K	1183.34
318.15 K	1180.06
323.15 K	1176.52

CCCCn1cc[n+](CCCC)c1.[Br-] [1,3-dibutylimidazolium bromide] + O
mass density [kg/m3], [2]
Conditions	m1 = 0.01076	m1 = 0.01516	m1 = 0.02165	m1 = 0.02575	m1 = 0.03042	m1 = 0.0354	m1 = 0.04047
293.15 K	998.64	998.84	999.13	999.32	999.54	999.77	1000
298.15 K	997.46	997.65	997.93	998.11	998.31	998.52	998.74
303.15 K	995.91	996.08	996.4	996.57	996.78	996.98	997.16
308.15 K	994.12	994.3	994.63	994.79	995	995.2	995.35

CCn1cc[n+](CC)c1.[Br-] [1,3-diethyl-1H-imidazolium bromide]
[1]
Conditions	mass density [kg/m3]
293.15 K	1355.06
298.15 K	1351.21
303.15 K	1347.51
308.15 K	1343.75
313.15 K	1339.95
318.15 K	1336.13
323.15 K	1332.29

CCn1cc[n+](CC)c1.[Br-] [1,3-diethyl-1H-imidazolium bromide] + O
mass density [kg/m3], [2]
Conditions	m1 = 0.01477	m1 = 0.01845	m1 = 0.02167	m1 = 0.0271	m1 = 0.03151	m1 = 0.035	m1 = 0.04375	m1 = 0.04513	m1 = 0.05018
293.15 K	998.92	999.11	999.27	999.55	999.78	999.96	1000.42	1000.49	1000.75
298.15 K	997.72	997.91	998.07	998.35	998.57	998.75	999.19	999.26	999.51
303.15 K	996.18	996.36	996.52	996.8	997.03	997.2	997.63	997.7	997.94
308.15 K	994.23	994.41	994.58	994.87	995.11	995.29	995.71	995.77	995.97

CCCCCCCCCCCC[n+]1ccn(CCCC)c1.[Br-] [1-butyl-3-dodecyl-1H-imidazolium bromide]
[1]
Conditions	mass density [kg/m3]
293.15 K	1059.3
298.15 K	1055.99
303.15 K	1052.6
308.15 K	1049.18
313.15 K	1045.73
318.15 K	1042.27
323.15 K	1038.83

CCCCCCCCCCCC[n+]1ccn(CCCC)c1.[Br-] [1-butyl-3-dodecyl-1H-imidazolium bromide] + O
mass density [kg/m3], [2]
Conditions	293.15 K	298.15 K	303.15 K
m1 = 0.0055	998.33	997.09	995.65
m1 = 0.0082	998.38	997.13	995.66
m1 = 0.0092	998.4	997.15	995.68
m1 = 0.0149	998.51	997.26	995.7
m1 = 0.0217	998.64	997.39	995.82
m1 = 0.0252	998.71	997.46	995.9
m1 = 0.0317	998.83	997.58	996
m1 = 0.0337	998.87	997.62	996.04
m1 = 0.0399	999	997.74	996.15
m1 = 0.0479	999.15	997.88	996.3
m1 = 0.0503	999.19	997.92	996.34

CCCC[n+]1ccn(CC)c1.[Br-] [1-butyl-3-ethylimidazolium bromide]
[1]
Conditions	mass density [kg/m3]
293.15 K	1263.23
298.15 K	1259.4
303.15 K	1255.95
308.15 K	1252.45
313.15 K	1248.92
318.15 K	1245.45
323.15 K	1241.93

CCCCCC[n+]1ccn(CCCC)c1.[Br-] [1-butyl-3-hexyl-1H-imidazolium bromide]
[1]
Conditions	mass density [kg/m3]
293.15 K	1148.8
298.15 K	1145.49
303.15 K	1142.11
308.15 K	1138.66
313.15 K	1135.17
318.15 K	1131.7
323.15 K	1128.22

CCCCCC[n+]1ccn(CCCC)c1.[Br-] [1-butyl-3-hexyl-1H-imidazolium bromide] + O
mass density [kg/m3], [2]
Conditions	m1 = 0.0051	m1 = 0.0109	m1 = 0.01511	m1 = 0.01999	m1 = 0.02536	m1 = 0.03025	m1 = 0.03503	m1 = 0.03996	m1 = 0.0452	m1 = 0.05
293.15 K	998.4	998.6	998.8	999	999.22	999.42	999.62	999.82	1000.03	1000.23
298.15 K	997.22	997.41	997.6	997.79	998.01	998.2	998.39	998.58	998.79	998.978
303.15 K	995.73	995.88	996.06	996.24	996.44	996.64	996.82	997.01	997.21	997.38
308.15 K	994.04	994.09	994.2	994.38	994.6	994.81	994.99	995.17	995.35	995.51

Source: the NIST ThermoML archive (doi:10.1016/j.jct.2018.02.001)
